Patent publication US10471046B2, “Method for treating, preventing, or reducing the risk of skin infection” (Melinta Subsidiary Corp., priority 2014, dated 2019)
≈ marks a conversion by molar mass, not a printed value.

Test system: S. aureus
Experiment: Minimum inhibitory concentrations (MICs) for S. aureus of exemplary compounds (Table 2)
Type: cell-based
Details: Staphylococcus aureus, minimum inhibitory concentrations for S. aureus; read-out: MICs
Method in brief: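 MICs (μg/mL) against S. aureus come from microtiter-tray dilution susceptibility testing per NCCLS M7-A5, comparing growth with and without compound.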

SMILES	MIC [µg/mL]
CC(=O)NC[C@H]1CN(c2ccc(-c3ccc(CNC(=O)/C=C/c4cncnc4)cc3)c(F)c2)C(=O)O1 [Compound 4006, N-{4′-[5-(S)-(Acetylamino-methyl)-2-oxo-oxazolidin-3-yl]-2′-fluoro-biphenyl-4-ylmethyl}-3-pyrimidin-5-yl-acrylamide]	8 (≈ 16.3 µM)
CO/N=C(\CNCc1cnoc1)c1ccc(-c2ccc(N3C[C@H](CNC(C)=O)OC3=O)cc2F)cc1 [Compound 4254, N-[3-(2-Fluoro-4′-{2-[(isoxazol-4-ylmethyl)-amino]-1-methoxyimino-ethyl}-biphenyl-4-yl)-2-oxo-oxazolidin-5-(S)-ylmethyl]-acetamide]	2 (≈ 4.04 µM)
CC(=O)NC[C@H]1CN(c2ccc(-c3ccc(CNCc4cocn4)nc3)c(F)c2)C(=O)O1 [Compound 4235, N-{3-[3-Fluoro-4-(6-{[(oxazol-4-ylmethyl)-amino]-methyl}-pyridin-3-yl)-phenyl]-2-oxo-oxazolidin-5-(S)-ylmethyl}-acetamide]	2 (≈ 4.55 µM)
CC(=O)NC[C@H]1CN(c2ccc(-c3ccc(CNC(=O)C4CCN4C(=O)OC(C)(C)C)cc3)c(F)c2)C(=O)O1 (stereo partly drawn) [Compound 4295, 2-({4′-[5-(S)-(Acetylamino-methyl)-2-oxo-oxazolidin-3-yl]-2′-fluoro-biphenyl-4-ylmethyl}-carbamoyl)-azetidine-1-carboxylic acid tert-butyl ester]	8 (≈ 14.8 µM)
CC(=O)NC[C@H]1CN(c2ccc(-c3ccc(Cn4cc(CN(C)C)nn4)cc3)c(F)c2)C(=O)O1 [Compound 1013, N-{3-[4′-(4-Dimethylaminomethyl-[1,2,3]triazol-1-ylmethyl)-2-fluoro-biphenyl-4-yl]-2-oxo-oxazolidin-5-(S)-ylmethyl}-acetamide]	4 (≈ 8.57 µM)
CC(=O)NC[C@H]1CN(c2ccc(-c3ccc([S+]([O-])Cc4ccncc4)cc3)c(F)c2)C(=O)O1 (stereo partly drawn) [Compound 3002, N-{3-[2-Fluoro-4′-(pyridin-4-ylmethanesulfinyl)-biphenyl-4-yl]-2-oxo-oxazolidin-5-(S)-ylmethyl}-acetamide]	1 (≈ 2.14 µM)
O=C1O[C@@H](CO)CN1c1ccc(-c2ccc(CNCc3ccncc3)cc2)c(F)c1 [Compound 4213, 3-(2-Fluoro-4′-{[(pyridin-4-ylmethyl)-amino]-methyl}-biphenyl-4-yl)-5-(R)-hydroxymethyl-oxazolidin-2-one]	4 (≈ 9.82 µM)
CC(=O)NC[C@H]1CN(c2ccc(-c3ccc(Cn4nnnc4C)cc3)c(F)c2)C(=O)O1 [Compound 1058, N-{3-[2-Fluoro-4′-(5-methyl-tetrazol-1-ylmethyl)-biphenyl-4-yl]-2-oxo-oxazolidin-5-(S)-ylmethyl}-acetamide]	0.5 (≈ 1.18 µM)
CC(=O)NC[C@H]1CN(c2ccc(-c3ccc(CSc4nncs4)cc3)c(F)c2)C(=O)O1 [Compound 2029, N-{3-[2-Fluoro-4′-([1,3,4]thiadiazol-2-ylsulfanylmethyl)-biphenyl-4-yl]-2-oxo-oxazolidin-5-(S)-ylmethyl}-acetamide]	0.25 (≈ 0.545 µM)
CC(=O)NC[C@H]1CN(c2ccc(-c3ccc(CS(=O)(=O)Cc4ccncc4)cc3)c(F)c2)C(=O)O1 [Compound 4214, N-{3-[2-Fluoro-4′-(pyridin-4-ylmethanesulfonylmethyl)-biphenyl-4-yl]-2-oxo-oxazolidin-5-(S)-ylmethyl}-acetamide]	1 (≈ 2.01 µM)
CC(=O)NC[C@H]1CN(c2ccc(-c3ccc(/C=N/N4CCOCC4)cc3)c(F)c2)C(=O)O1 [Compound 2056, N-{3-[2-Fluoro-4′-(morpholin-4-yliminomethyl)-biphenyl-4-yl]-2-oxo-oxazolidin-5-(S)-ylmethyl}-acetamide]	0.25 (≈ 0.568 µM)
CC(=O)NC[C@H]1CN(c2ccc(-c3ccc(Cn4ccnc4C)cc3)c(F)c2)C(=O)O1 [Compound 1066, N-{3-[2-Fluoro-4′-(2-methyl-imidazol-1-ylmethyl)-biphenyl-4-yl]-2-oxo-oxazolidin-5-(S)-ylmethyl}-acetamide]	1 (≈ 2.37 µM)
CC(=O)NC[C@H]1CN(c2ccc(-c3ccc(CNC(=O)[C@H](N)Cc4c[nH]c5ccccc45)cc3)c(F)c2)C(=O)O1 [Compound 4307, N-{4′-[5-(S)-(Acetylamino-methyl)-2-oxo-oxazolidin-3-yl]-2′-fluoro-biphenyl-4-ylmethyl}-2-(R)-amino-3-(1H-indol-3-yl)-propionamide]	2 (≈ 3.68 µM)
CC(=O)NC[C@H]1CN(c2ccc(-c3ccc(CNCC(F)(F)c4ccccn4)cc3)c(F)c2)C(=O)O1 [Compound 4177, N-(3-{4′-[(2,2-Difluoro-2-pyridin-2-yl-ethylamino)-methyl]-2-fluoro-biphenyl-4-yl}-2-oxo-oxazolidin-5-(S)-ylmethyl)-acetamide]	4 (≈ 8.02 µM)
CC(=O)NC[C@H]1CN(c2ccc(-c3ccc(CNC(=O)[C@@H]4CCCN4)cc3)c(F)c2)C(=O)O1 [Compound 4309, Pyrrolidine-2-(S)-carboxylic acid {4′-[5-(S)-(acetylamino-methyl)-2-oxo-oxazolidin-3-yl]-2′-fluoro-biphenyl-4-ylmethyl}-amide]	8 (≈ 17.6 µM)
CC(=O)NC[C@H]1CN(c2ccc(-c3ccc(CNC(=O)C4(NC(=O)OC(C)(C)C)CC4)cc3)c(F)c2)C(=O)O1 [Compound 4304, [1-({4′-[5-(S)-(Acetylamino-methyl)-2-oxo-oxazolidin-3-yl]-2′-fluoro-biphenyl-4-ylmethyl}-carbamoyl)-cyclopropyl]-carbamic acid tert-butyl ester]	16 (≈ 29.6 µM)
CC(=O)NC[C@H]1CN(c2ccc(-c3ccc([C@H](O)CNCc4ccccc4)cc3)c(F)c2)C(=O)O1 [Compound 4246, N-{3-[4′-(2-Benzylamino-1-(S)-hydroxy-ethyl)-2-fluoro-biphenyl-4-yl]-2-oxo-oxazolidin-5-(S)-ylmethyl}-acetamide]	4 (≈ 8.38 µM)
CC(=O)NC[C@H]1CN(c2ccc(-c3ccc(C(C)NC(C)c4ccncc4)cc3)c(F)c2)C(=O)O1 (mixture of isomers) [Compound 4160, N-(3-{2-Fluoro-4′-[1-(R/S)-(1-pyridin-4-(R/S)-yl-ethylamino)-ethyl]-biphenyl-4-yl}-2-oxo-oxazolidin-5-(S)-ylmethyl)-acetamide]	8 (≈ 16.8 µM)
CC(=O)NC[C@H]1CN(c2ccc(-c3ccc(CNCc4cc(C)oc4C(F)(F)F)cc3)c(F)c2)C(=O)O1 [Compound 4105, N-[3-(2-Fluoro-4′-{[(5-methyl-2-trifluoromethyl-furan-3-ylmethyl)-amino]-methyl}-biphenyl-4-yl)-2-oxo-oxazolidin-5-(S)-ylmethyl]-acetamide]	0.5 (≈ 0.962 µM)
CC(=O)NC[C@H]1CN(c2ccc(-c3ccc(Cn4cc(CO)nn4)cc3)c(F)c2)C(=O)O1 [Compound 1028, N-{3-[2-Fluoro-4′-(4-hydroxymethyl-[1,2,3]triazol-1-ylmethyl)-biphenyl-4-yl]-2-oxo-oxazolidin-5-(S)-ylmethyl}-acetamide]	1 (≈ 2.28 µM)
CC(=O)NC[C@H]1CN(c2ccc(-c3ccc(CNCc4ccc(CO)o4)cc3)c(F)c2)C(=O)O1 [Compound 4075, N-[3-(2-Fluoro-4′-{[(5-hydroxymethyl-furan-2-ylmethyl)-amino]-methyl}-biphenyl-4-yl)-2-oxo-oxazolidin-5-(S)-ylmethyl]-acetamide]	2 (≈ 4.28 µM)
CC(=O)NC[C@H]1CN(c2ccc(-c3ccc(CNCc4cccnc4N)cc3)c(F)c2)C(=O)O1 [Compound 4152, N-[3-(4′-{[(2-Amino-pyridin-3-ylmethyl)-amino]-methyl}-2-fluoro-biphenyl-4-yl)-2-oxo-oxazolidin-5-(S)-ylmethyl]-acetamide]	2 (≈ 4.31 µM)
CC(=O)NC[C@H]1CN(c2ccc(-c3ccc(COCc4ccccn4)nc3)c(F)c2)C(=O)O1 [Compound 4195, N-(3-{3-Fluoro-4-[6-(pyridin-2-ylmethoxymethyl)-pyridin-3-yl]-phenyl}-2-oxo-oxazolidin-5-(S)-ylmethyl)-acetamide]	1 (≈ 2.22 µM)
CC(=O)NC[C@H]1CN(c2ccc(-c3ccc(CNC(=O)C4CNCCN4)cc3)c(F)c2)C(=O)O1 (mixture of isomers) [Compound 4322, Piperazine-2-(R/S)-carboxylic acid {4′-[5-(S)-(acetylamino-methyl)-2-oxo-oxazolidin-3-yl]-2′-fluoro-biphenyl-4-ylmethyl}-amide]	2
CC(=O)NC[C@H]1CN(c2ccc(-c3ccc(CNCCCN4CCCC4=O)cc3)c(F)c2)C(=O)O1 [Compound 4156, N-[3-(2-Fluoro-4′-{[3-(2-oxo-pyrrolidin-1-yl)-propylamino]-methyl}-biphenyl-4-yl)-2-oxo-oxazolidin-5-(S)-ylmethyl]-acetamide]	16 (≈ 33.2 µM)
CC(=O)NC[C@H]1CN(c2ccc(-c3ccc(Cn4nnc(C)n4)cc3)c(F)c2)C(=O)O1 [Compound 1059, N-{3-[2-Fluoro-4′-(5-methyl-tetrazol-2-ylmethyl)-biphenyl-4-yl]-2-oxo-oxazolidin-5-(S)-ylmethyl}-acetamide]	0.5 (≈ 1.18 µM)
CC(=O)NC[C@H]1CN(c2ccc(-c3ccc([C@H](CO)N4CCCC(F)(F)C4)cc3)c(F)c2)C(=O)O1 [Compound 1074, N-(3-{4′-[1-(R)-(3,3-Difluoro-piperidin-1-yl)-2-hydroxy-ethyl]-2-fluoro-biphenyl-4-yl}-2-oxo-oxazolidin-5-(S)-ylmethyl)-acetamide]	4 (≈ 8.14 µM)
CC(=O)NC[C@H]1CN(c2ccc(-c3cccc(CNCc4csnn4)c3)c(F)c2)C(=O)O1 [Compound 4166, N-[3-(2-Fluoro-3′-{[([1,2,3]thiadiazol-4-ylmethyl)-amino]-methyl}-biphenyl-4-yl)-2-oxo-oxazolidin-5-(S)-ylmethyl]-acetamide]	8 (≈ 17.6 µM)
CC(=O)NC[C@H]1CN(c2ccc(-c3ccc(CNCCc4ccc(S(N)(=O)=O)cc4)cc3)c(F)c2)C(=O)O1 [Compound 4094, N-[3-(2-Fluoro-4′-{[2-(4-sulfamoyl-phenyl)-ethylamino]-methyl}-biphenyl-4-yl)-2-oxo-oxazolidin-5-(S)-ylmethyl]-acetamide]	2 (≈ 3.7 µM)
CC(=O)NC[C@H]1CN(c2ccc(-c3ccc(CNCc4ccc[nH]4)cc3)c(F)c2)C(=O)O1 [Compound 4048, N-[3-(2-Fluoro-4′-{[(1H-pyrrol-2-ylmethyl)-amino]-methyl}-biphenyl-4-yl)-2-oxo-oxazolidin-5-(S)-ylmethyl]-acetamide]	2 (≈ 4.58 µM)
